Test results as given in patent publication US10351546B2, “Pyridin-3-yl acetic acid derivatives as inhibitors of human immunodeficiency virus replication” (priority 2015, dated 2019).

System: NL-RLuc virus
Assay: Inhibition of HIV replication (NL-RLuc luciferase reporter virus in MT-2 cells)
Format: cell-based
Details: Human immunodeficiency virus 1, MT2, 120 h, read-out: Activity
Source text: Inhibition of HIV replication: A recombinant NL-RLuc proviral clone was constructed in which a section of the nef gene form NL4-3 was replaced with the Renilla Luciferase gene. This virus is fully infectious and can undergo multiple cycles of replication in cell culture. In addition, the luciferous reporter provides a simple and easy method for quantitating the extent of virus growth and consequently, the antiviral activity of test compounds. The plasmid pNLRLuc contains the proviral NL-Rluc DNA cloned into pUC18 at the PvuII site. The NL-RLuc virus was prepared by transfection of 293T cells with the plasmid pNLRLuc. Transfections were performed using the LipofectAMINE PLUS kit form Invitrogen (Carlsbad, Calif.) according to the manufacturer and the virus generated was titered in MT-2 cells. For susceptibility analyses, the titrated virus was used to infect MT-2 cells in the presence of compound, and after 5 days of incubation, cells were processed and quantitated for virus growth by the amount of expressed luciferase. Assay media was RPMI 1640 supplemented with 10% heat inactivated fetal bovine serum (FBS), 100 units/ml penicillin G/100 units/ml streptomycin, 10 mM HEPES buffer pH 7.55 and 2 mM L-glutamine. The results form at least 2 experiments were used to calculate the EC50 values. Luciferase was quantitated using the Dual Luciferase kit form Promega (Madison, Wis.). Susceptibility of viruses to compounds was determined by incubation in the presence of serial dilutions of the compound. The 50% effective concentration (EC50) was calculated by using the exponential form of the median effect equation where (Fa)=1/[1+(ED50/drug conc.)^m](Johnson V A, Byington R T. Infectivity Assay. In Techniques in HIV Research. ed. Aldovini A, Walker B D. 71-76. New York: Stockton Press. 1990). Activity equal to A refers to a compound having an EC50≤100 nM, while B and C denote compounds having an EC50 between 100 nM and 1 uM (B) or >1 uM (C).

Structure (SMILES) | EC50
Cc1nc(CNCc2ccccc2)c(-c2ccc(OCCc3ccc(F)cc3)cc2)c(N2CCC(C)(C)CC2)c1[C@H](OC(C)(C)C)C(=O)O [Example 72, (S)-2-(6-((Benzylamino)methyl)-4-(4,4-dimethylpiperidin-1-yl)-5-(4-(4-fluorophenethoxy)phenyl)-2-methylpyridin-3-yl)-2-(tert-butoxy)acetic acid] | < 0.1 µM
CNC(=O)c1nc(C)c([C@H](OC(C)(C)C)C(=O)O)c(N2CCC(C)(C)CC2)c1-c1ccc(OCCc2ccc(F)cc2)cc1 [Example 40, (S)-2-(tert-Butoxy)-2-(4-(4,4-dimethylpiperidin-1-yl)-5-(4-(4-fluorophenethoxy)phenyl)-2-methyl-6-(methylcarbamoyl)pyridin-3-yl)acetic acid] | < 0.1 µM
Cc1nc(Cl)c(-c2ccc(OCCc3ccc(F)cc3)cc2)c(N2CCC(C)(C)CC2)c1[C@H](OC(C)(C)C)C(=O)O (single isomer, unassigned) [Example 52] | < 0.1 µM
Cc1nc(-c2ncc(Cc3ccc(F)cc3)o2)c(-c2ccc(OCCc3ccc(F)cc3)cc2)c(N2CCC(C)(C)CC2)c1[C@H](OC(C)(C)C)C(=O)O [Example 45, (S)-2-(tert-Butoxy)-2-(4-(4,4-dimethylpiperidin-1-yl)-6-(5-(4-fluorobenzyl)oxazol-2-yl)-5-(4-(4-fluorophenethoxy)phenyl)-2-methylpyridin-3-yl)acetic acid] | < 0.1 µM
Cc1nc(O)c(-c2ccc(OCCc3ccc(F)cc3)cc2)c(N2CCC(C)(C)CC2)c1[C@H](OC(C)(C)C)C(=O)O (single isomer, unassigned) [Example 50] | < 0.1 µM
Cc1nc(CN2CCSCC2)c(-c2ccc(OCCc3ccc(F)cc3)cc2)c(N2CCC(C)(C)CC2)c1[C@H](OC(C)(C)C)C(=O)O [Example 79, (S)-2-(tert-Butoxy)-2-(4-(4,4-dimethylpiperidin-1-yl)-5-(4-(4-fluorophenethoxy)phenyl)-2-methyl-6-(thiomorpholinomethyl)pyridin-3-yl)acetic acid] | < 0.1 µM
Cc1cc(F)ccc1CN1CCc2cc(-c3c(CN4CCN(C)CC4)nc(C)c([C@H](OC(C)(C)C)C(=O)O)c3N3CCC(C)(C)CC3)ccc2C1 [Example 136, (S)-2-(tert-Butoxy)-2-(4-(4,4-dimethylpiperidin-1-yl)-5-(2-(4-fluoro-2-methylbenzyl)-1,2,3,4-tetrahydroisoquinolin-6-yl)-2-methyl-6-((4-methylpiperazin-1-yl)methyl)pyridin-3-yl)acetic acid] | < 0.1 µM
CCOCCOCc1nc(C)c([C@H](OC(C)(C)C)C(=O)O)c(N2CCC(C)(C)CC2)c1-c1ccc(OCCc2ccc(F)cc2)cc1 [Example 10, (S)-2-(tert-Butoxy)-2-(4-(4,4-dimethylpiperidin-1-yl)-6-((2-ethoxyethoxy)methyl)-5-(4-(4-fluorophenethoxy)phenyl)-2-methylpyridin-3-yl)acetic acid] | < 0.1 µM
Cc1nc(C#N)c(-c2ccc(OCCc3ccc(F)cc3)cc2)c(N2CCC(C)(C)CC2)c1[C@H](OC(C)(C)C)C(=O)O [Example 162, (S)-2-(tert-Butoxy)-2-(6-cyano-4-(4,4-dimethylpiperidin-1-yl)-5-(4-(4-fluorophenethoxy)phenyl)-2-methylpyridin-3-yl)acetic acid] | < 0.1 µM
Cc1nc(CN2CCOCC2)c(-c2ccc(OCCc3ccc(F)cc3)cc2)c(N2CCC(C)(C)CC2)c1[C@H](OC(C)(C)C)C(=O)O [Example 70, (S)-2-(tert-Butoxy)-2-(4-(4,4-dimethylpiperidin-1-yl)-5-(4-(4-fluorophenethoxy)phenyl)-2-methyl-6-(morpholinomethyl)pyridin-3-yl)acetic acid] | < 0.1 µM
Cc1nc(COCCN2CCCCC2)c(-c2ccc(OCCc3ccc(F)cc3)cc2)c(N2CCC(C)(C)CC2)c1[C@H](OC(C)(C)C)C(=O)O [Example 27, (S)-2-(tert-Butoxy)-2-(4-(4,4-dimethylpiperidin-1-yl)-5-(4-(4-fluorophenethoxy)phenyl)-2-methyl-6-((2-(piperidin-1-yl)ethoxy)methyl)pyridin-3-yl)acetic acid] | < 0.1 µM
Cc1nc(Cn2ncnc2C)c(-c2ccc(OCCc3ccc(F)cc3)cc2)c(N2CCC(C)(C)CC2)c1[C@H](OC(C)(C)C)C(=O)O [Example 32, (S)-2-(tert-butoxy)-2-(4-(4,4-dimethylpiperidin-1-yl)-5-(4-(4-fluorophenethoxy)phenyl)-2-methyl-6-((5-methyl-1H-1,2,4-triazol-1-yl)methyl)pyridin-3-yl)acetic acid] | < 0.1 µM
CCOCCOCc1nc(C)c([C@H](OC(C)(C)C)C(=O)O)c(N2CCC(C)(C)CC2)c1-c1ccc2c(c1)CCN(Cc1ccc(F)cc1C)C2 [Example 160, (S)-2-(tert-Butoxy)-2-(4-(4,4-dimethylpiperidin-1-yl)-6-((2-ethoxyethoxy)methyl)-5-(2-(4-fluoro-2-methylbenzyl)-1,2,3,4-tetrahydroisoquinolin-6-yl)-2-methylpyridin-3-yl)acetic acid] | < 0.1 µM
Cc1nc(/C=C/COC(C)C)c(-c2ccc(OCCc3ccc(F)cc3)cc2)c(N2CCC(C)(C)CC2)c1[C@H](OC(C)(C)C)C(=O)O [Example 54, (S,E)-2-(tert-Butoxy)-2-(4-(4,4-dimethylpiperidin-1-yl)-5-(4-(4-fluorophenethoxy)phenyl)-6-(3-isopropoxyprop-1-en-1-yl)-2-methylpyridin-3-yl)acetic acid] | < 0.1 µM
Cc1nc(COCC2COC2)c(-c2ccc(OCCc3ccc(F)cc3)cc2)c(N2CCC(C)(C)CC2)c1[C@H](OC(C)(C)C)C(=O)O [Example 7, (S)-2-(tert-Butoxy)-2-(4-(4,4-dimethylpiperidin-1-yl)-5-(4-(4-fluorophenethoxy)phenyl)-2-methyl-6-((oxetan-3-ylmethoxy)methyl)pyridin-3-yl)acetic acid] | < 0.1 µM
Cc1cc(F)ccc1CN1CCc2cc(-c3c(Cn4cnnc4C)nc(C)c([C@H](OC(C)(C)C)C(=O)O)c3N3CCC(C)(C)CC3)ccc2C1 [Example 146, (S)-2-(tert-butoxy)-2-(4-(4,4-dimethylpiperidin-1-yl)-5-(2-(4-fluoro-2-methylbenzyl)-1,2,3,4-tetrahydroisoquinolin-6-yl)-2-methyl-6-((3-methyl-4H-1,2,4-triazol-4-yl)methyl)pyridin-3-yl)acetic acid] | < 0.1 µM
Cc1nc(CN(C)C)c([C@H](OC(C)(C)C)C(=O)O)c(N2CCC(C)(C)CC2)c1-c1ccc(OCCc2ccc(F)cc2)cc1 [Example 112, (S)-2-(tert-Butoxy)-2-(2-((dimethylamino)methyl)-4-(4,4-dimethylpiperidin-1-yl)-5-(4-(4-fluorophenethoxy)phenyl)-6-methylpyridin-3-yl)acetic acid] | < 0.1 µM
Cc1nc(COCCCOCc2ccccc2)c([C@H](OC(C)(C)C)C(=O)O)c(N2CCC(C)(C)CC2)c1-c1ccc(OCCc2ccc(F)cc2)cc1 [Example 111, (S)-2-(2-((3-(Benzyloxy)propoxy)methyl)-4-(4,4-dimethylpiperidin-1-yl)-5-(4-(4-fluorophenethoxy)phenyl)-6-methylpyridin-3-yl)-2-(tert-butoxy)acetic acid] | < 0.1 µM

Same assay, conditions: Human immunodeficiency virus 1, MT2, 120 h, read-out: EC50 μM

Structure (SMILES) | EC50
Cc1nc(C#N)c(-c2ccc(OCCc3ccc(F)cc3)cc2)c(N2CCC(C)(C)CC2)c1[C@H](OC(C)(C)C)C(=O)O [Example 162, (S)-2-(tert-Butoxy)-2-(6-cyano-4-(4,4-dimethylpiperidin-1-yl)-5-(4-(4-fluorophenethoxy)phenyl)-2-methylpyridin-3-yl)acetic acid] | 0.008 µM

Same assay, conditions: read-out: Activity; NL-RLuc virus in MT-2 cells, 5 days of incubation, luciferase readout

Structure (SMILES) | EC50
Cc1cc(F)ccc1CN1CCc2cc(-c3c(C(C)O)nc(C)c([C@H](OC(C)(C)C)C(=O)O)c3N3CCC(C)(C)CC3)ccc2C1 (single isomer, unassigned) [Example 153] | < 0.1 µM
